# Like-named read-outs stand apart in the source and are kept apart here.
# Molecular target: human APJ receptor (Homo sapiens (Human), UniProt P35414)
# Test: Intracellular cAMP accumulation assay (APJ hcAMP, HTRF)
# Type: cell-based
# Conditions: read-out: Human APJ cAMP EC50 Potency range
# Method in brief: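 HEK293 cells stably expressing human APJ, 5,000 per well, incubated 30 min at rt with compound, […] and 2 μM forskolin. cAMP measured by HTRF against a cAMP standard curve as inhibition of forskolin-driven production. EC50 from variable-slope sigmoidal fit.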
# [1] = human APJ, intracellular cAMP accumulation
# [2] = HEK293 cells stably expressing human APJ receptor, inhibition of forskolin-mediated cAMP production
# Chain of human APJ receptor (P35414 whole entry): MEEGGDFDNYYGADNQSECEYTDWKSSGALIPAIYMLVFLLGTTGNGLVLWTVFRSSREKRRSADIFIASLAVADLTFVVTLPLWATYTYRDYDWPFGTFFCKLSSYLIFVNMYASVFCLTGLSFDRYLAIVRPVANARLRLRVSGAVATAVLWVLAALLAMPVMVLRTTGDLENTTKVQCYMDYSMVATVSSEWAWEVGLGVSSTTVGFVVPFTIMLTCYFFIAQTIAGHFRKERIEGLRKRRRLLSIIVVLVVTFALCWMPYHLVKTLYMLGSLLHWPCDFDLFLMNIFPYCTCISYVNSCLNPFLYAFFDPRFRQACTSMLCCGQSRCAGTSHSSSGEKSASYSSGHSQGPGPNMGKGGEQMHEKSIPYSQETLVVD
SMILES,EC50 [1] [nM],EC50 [2] [nM]
"COc1cccc(OC)c1-n1c(CCC(C)C)nc(=O)c(S(=O)(=O)c2ccc(-n3ccccc3=O)cc2)c1O [Example 73, 1-(2,6-dimethoxyphenyl)-6-hydroxy-2-(3-methylbutyl)-5-[4-(2-oxo-1,2-dihydropyridin-1-yl)benzenesulfonyl]-1,4-dihydropyrimidin-4-one]",0.01 to 10,–
"CCCCc1nc(=O)c(S(=O)(=O)c2ccc(-n3ccc(C)cc3=O)cc2)c(O)n1-c1c(OC)cccc1OC [Example 74, 2-butyl-1-(2,6-dimethoxyphenyl)-6-hydroxy-5-[4-(4-methyl-2-oxo-1,2-dihydropyridin-1-yl)benzenesulfonyl]-1,4-dihydropyrimidin-4-one]",0.01 to 10,–
"CCCCc1nc(=O)c(S(=O)(=O)c2ccc(-n3cc(F)ccc3=O)cc2)c(O)n1-c1c(OC)cccc1OC [Example 75, 2-butyl-1-(2,6-dimethoxyphenyl)-5-[4-(5-fluoro-2-oxo-1,2-dihydropyridin-1-yl)benzenesulfonyl]-6-hydroxy-1,4-dihydropyrimidin-4-one]",0.01 to 10,–
"CCCCc1nc(=O)c(S(=O)(=O)c2ccc(-n3cc(C)ccc3=O)cc2)c(O)n1-c1c(OC)cccc1OC [Example 76, 2-butyl-1-(2,6-dimethoxyphenyl)-6-hydroxy-5-[4-(5-methyl-2-oxo-1,2-dihydropyridin-1-yl)benzenesulfonyl]-1,4-dihydropyrimidin-4-one]",0.01 to 10,–
"CCCCc1nc(=O)c(S(=O)(=O)c2ccc(-n3cc(Cl)ccc3=O)cc2)c(O)n1-c1c(CC)cccc1CC [Example 77, 2-butyl-5-[4-(5-chloro-2-oxo-1,2-dihydropyridin-1-yl)benzenesulfonyl]-1-(2,6-diethylphenyl)-6-hydroxy-1,4-dihydropyrimidin-4-one]",0.01 to 10,–
"CCCCc1nc(=O)c(S(=O)(=O)c2ccc(-n3cc(C)ccc3=O)cc2)c(O)n1-c1c(CC)cccc1CC [Example 78, 2-butyl-1-(2,6-diethylphenyl)-6-hydroxy-5-[4-(5-methyl-2-oxo-1,2-dihydropyridin-1-yl)benzenesulfonyl]-1,4-dihydropyrimidin-4-one]",0.01 to 10,–
"CCCCc1nc(=O)c(S(=O)(=O)c2ccc(-c3nccn3C)cc2)c(O)n1-c1c(OC)cccc1OC [Example 79, 2-Butyl-1-(2,6-dimethoxyphenyl)-6-hydroxy-5-((4-(1-methyl-1H-imidazol-2-yl)phenyl)sulfonyl)pyrimidin-4(1H)-one]",–,0.01 to 10
"CCCCc1nc(=O)c(S(=O)(=O)c2ccc(-c3ncn(C)n3)cc2)c(O)n1-c1c(OC)cccc1OC [Example 80, 2-butyl-1-(2,6-dimethoxyphenyl)-6-hydroxy-5-[4-(1-methyl-1H-1,2,4-triazol-3-yl)benzenesulfonyl]-1,4-dihydropyrimidin-4-one]",0.01 to 10,–
"CCCCc1nc(=O)c(S(=O)(=O)c2ccc(-c3cccs3)cc2)c(O)n1-c1c(OC)cccc1OC [Example 81, 2-butyl-1-(2,6-dimethoxyphenyl)-6-hydroxy-5-[4-(thiophen-2-yl)benzenesulfonyl]-1,4-dihydropyrimidin-4-one]",0.01 to 10,–
"CCCCc1nc(=O)c(S(=O)(=O)c2ccc(-c3c(C)nnn3C)cc2)c(O)n1-c1c(OC)cccc1OC [Example 82, 2-butyl-1-(2,6-dimethoxyphenyl)-5-[4-(dimethyl-1H-1,2,3-triazol-5-yl)benzenesulfonyl]-6-hydroxy-1,4-dihydropyrimidin-4-one]",0.01 to 10,–
"CCCCc1nc(=O)c(S(=O)(=O)c2ccc(-c3nc(C(=O)OCC)co3)cc2)c(O)n1-c1c(OC)cccc1OC [Example 83, ethyl 2-(4-{[2-butyl-1-(2,6-dimethoxyphenyl)-6-hydroxy-4-oxo-1,4-dihydropyrimidin-5-yl]sulfonyl}phenyl)-1,3-oxazole-4-carboxylate]",0.01 to 10,–
"CCCCc1nc(=O)c(S(=O)(=O)c2ccc(-c3nc(C(=O)OC)c(C)s3)cc2)c(O)n1-c1c(OC)cccc1OC [Example 84, methyl 2-(4-{[2-butyl-1-(2,6-dimethoxyphenyl)-6-hydroxy-4-oxo-1,4-dihydropyrimidin-5-yl]sulfonyl}phenyl)-5-methyl-1,3-thiazole-4-carboxylate]",0.01 to 10,–
"CCCCc1nc(=O)c(S(=O)(=O)c2ccc(C3CC3)cc2)c(O)n1-c1c(OC)cccc1OC [Example 85, 2-Butyl-5-((4-cyclopropylphenyl)sulfonyl)-1-(2,6-dimethoxyphenyl)-6-hydroxypyrimidin-4(1H)-one]",–,0.01 to 10
"COc1cccc(OC)c1-n1c(C2CCCC2)nc(=O)c(S(=O)(=O)c2ccc(C3CC3)cc2)c1O [Example 86, 2-cyclopentyl-5-(4-cyclopropylbenzene-sulfonyl)-1-(2,6-dimethoxyphenyl)-6-hydroxy-1,4-dihydropyrimidin-4-one]",0.01 to 10,–
"CCCCc1nc(=O)c(S(=O)(=O)c2ccc(C3CC3)cc2)c(O)n1-c1c(CC)cccc1CC [Example 87, 2-butyl-5-(4-cyclopropylbenzene-sulfonyl)-1-(2,6-diethylphenyl)-6-hydroxy-1,4-dihydropyrimidin-4-one]",0.01 to 10,–
"CCOCc1nc(=O)c(S(=O)(=O)c2ccc(C3CC3)cc2)c(O)n1-c1c(CC)cccc1CC [Example 88, 5-(4-cyclopropylbenzene-sulfonyl)-1-(2,6-diethylphenyl)-2-(ethoxymethyl)-6-hydroxy-1,4-dihydropyrimidin-4-one]",0.01 to 10,–

SMILES,EC50 [1] [nM],EC50 [2] [nM]
"CCCCc1nc(=O)c(S(=O)(=O)c2ccc(C(=O)O)cc2)c(O)n1-c1c(OC)cccc1OC [Example 89, 4-((2-Butyl-1-(2,6-dimethoxyphenyl)-6-hydroxy-4-oxo-1,4-dihydropyrimidin-5-yl)sulfonyl)benzoic Acid]",–,0.01 to 10
"CCCCc1nc(=O)c(S(=O)(=O)c2ccc(C(=O)NCC(F)(F)F)cc2)c(O)n1-c1c(OC)cccc1OC [Example 90, 4-((2-Butyl-1-(2,6-dimethoxyphenyl)-6-hydroxy-4-oxo-1,4-dihydropyrimidin-5-yl)sulfonyl)-N-(2,2,2-trifluoroethyl)benzamide]",–,0.01 to 10
"CCCCc1nc(=O)c(S(=O)(=O)c2ccc(C(=O)NC3CC3)cc2)c(O)n1-c1c(OC)cccc1OC [Example 91, 4-{[2-butyl-1-(2,6-dimethoxyphenyl)-6-hydroxy-4-oxo-1,4-dihydropyrimidin-5-yl]suffonyl}-N-cyclopropylbenzamide]",0.01 to 10,–
"CCCCc1nc(=O)c(S(=O)(=O)c2ccc(C(=O)NC)cc2)c(O)n1-c1c(OC)cccc1OC [Example 92, 4-{[2-butyl-1-(2,6-dimethoxyphenyl)-6-hydroxy-4-oxo-1,4-dihydropyrimidin-5-yl]sulfonyl}-N-methylbenzamide]",0.01 to 10,–
"CCCCc1nc(=O)c(S(=O)(=O)c2ccc(C(=O)N3CC(F)(F)C3)cc2)c(O)n1-c1c(OC)cccc1OC [Example 93, 2-butyl-5-[4-(3,3-difluoroazetidine-1-carbonyl)benzenesulfo-nyl]-1-(2,6-dimethoxyphenyl)-6-hydroxy-1,4-dihydropyrimidin-4-one]",0.01 to 10,–
"CCCCc1nc(=O)c(S(=O)(=O)c2ccc(C(=O)N3CC(C)(O)C3)cc2)c(O)n1-c1c(OC)cccc1OC [Example 94, 2-butyl-1-(2,6-dimethoxyphenyl)-6-hydroxy-5-[4-(3-hydroxy-3-methylazetidine-1-carbonyl)benzenesulfo-nyl]-1,4-dihydropyrimidin-4-one]",0.01 to 10,–
"CCCCc1nc(=O)c(S(=O)(=O)c2ccc(C(=O)N3CCC(F)(F)C3)cc2)c(O)n1-c1c(OC)cccc1OC [Example 95, 2-butyl-5-[4-(3,3-difluoropyrrolidine-1-carbonyl)benzene-sulfonyl]-1-(2,6-dimethoxyphenyl)-6-hydroxy-1,4-dihydropyrimidin-4-one]",0.01 to 10,–
"CCCCc1nc(=O)c(S(=O)(=O)c2ccc(C(=O)N3CCOCC3)cc2)c(O)n1-c1c(OC)cccc1OC [Example 96, 2-butyl-1-(2,6-dimethoxyphenyl)-6-hydroxy-5-[4-(morpholine-4-carbonyl)benzenesulfo-nyl]-1,4-dihydropyrimidin-4-one]",0.01 to 10,–
"CCCCc1nc(=O)c(S(=O)(=O)c2ccc(C(=O)Nc3ccc(F)nc3)cc2)c(O)n1-c1c(OC)cccc1OC [Example 97, 4-{[2-butyl-1-(2,6-dimethoxyphenyl)-6-hydroxy-4-oxo-1,4-dihydropyrimidin-5-yl]sulfonyl}-N-(6-fluoropyridin-3-yl)benzamide]",10 to 100,–
"CCCCc1nc(=O)c(S(=O)(=O)c2ccc(Br)cn2)c(O)n1-c1c(OC)cccc1OC [Example 98, 5-((5-Bromopyridin-2-yl)sulfonyl)-2-butyl-1-(2,6-dimethoxyphenyl)-6-hydroxypyrimidin-4(1H)-one]",–,0.01 to 10
"COc1cccc(OC)c1-n1c(CCC(C)C)nc(=O)c(S(=O)(=O)c2ccccn2)c1O [Example 99, 1-(2,6-dimethoxyphenyl)-6-hydroxy-2-(3-methylbutyl)-5-(pyridine-2-sulfonyl)-1,4-dihydropyrimidin-4-one]",0.01 to 10,–
"CCCCc1nc(=O)c(S(=O)(=O)c2cc(C)oc2C)c(O)n1-c1c(OC)cccc1OC [Example 100, 2-butyl-1-(2,6-dimethoxyphenyl)-5-[(2,5-dimethylfuran-3-yl)sulfonyl]-6-hydroxy-1,4-dihydropyrimidin-4-one]",0.01 to 10,–
"CCCCc1nc(=O)c(S(=O)(=O)c2ccc(C3CC3)cn2)c(O)n1-c1c(OC)cccc1OC [Example 101, 2-butyl-5-[(5-cyclopropylpyridin-2-yl)sulfonyl]-1-(2,6-dimethoxyphenyl)-6-hydroxy-1,4-dihydropyrimidin-4-one]",0.01 to 10,–
"CCCCc1nc(=O)c(S(=O)(=O)c2ccc(C3CC3)cn2)c(O)n1-c1c(CC)cccc1CC [Example 102, 2-butyl-5-[(5-cyclopropylpyridin-2-yl)sulfonyl]-1-(2,6-diethylphenyl)-6-hydroxy-1,4-dihydropyrimidin-4-one]",0.01 to 10,–
"CCCCc1nc(=O)c(S(=O)(=O)c2ccc(-c3ccc(F)cc3)cn2)c(O)n1-c1c(OC)cccc1OC [Example 103, 2-butyl-1-(2,6-dimethoxyphenyl)-5-{[5-(4-fluorophenyl)pyridin-2-yl]sulfonyl}-6-hydroxy-1,4-dihydropyrimidin-4-one]",0.01 to 10,–

# From patent publication US10508104B2, “6-hydroxy-5-(phenyl/heteroarylsulfonyl)pyrimidin-4(1H)-one as APJ agonists” (Bristol-Myers Squibb Company, priority 2016, dated 2019)
